In US20110105397A1, “METHOD FOR TREATING HEART FAILURE WITH STRESSCOPIN-LIKE PEPTIDES” (priority 2009, published 2011):
Where two headings read alike, the source gives them in different places.

Tests used:
[1] = system: Langendorff perfused rabbit heart; experiment: Retrograde-perfused Langendorff rabbit heart assay; conditions: bolus into the perfusion block
Procedure: The effect of h-SCP (SEQ ID NO:1) on heart rate (HR), left ventricular (LV) contraction, and vascular tone was assessed in a retrograde-perfused Langendorff rabbit heart assay.

[2] = system: dogs with advanced heart failure; experiment: LV pressure-volume relationship in dogs with advanced heart failure, 120-min infusion; assay type: in vivo, dog; conditions: HF dogs
Procedure: In a subsequent study baseline hemodynamic, ventriculographic, echocardiographic and LV pressure-volume was measured, before each dog was intravenously administered a continuous, 4.3 ng/kg/min infusion of h-SCP (SEQ ID NO:1) for 120 min. At the end of the 120-min infusion, complete hemodynamic, ventriculographic, echocardiographic, and LV pressure-volume measurements were repeated. Lead II on the electrocardiogram was monitored throughout the study for development of de novo ventricular arrhythmias. The dosing solutions were not adjusted or corrected for peptide content since the peptide content of the test article used in these studies fell between the customary 85-90% limit where this correction is not required. […]
All hemodynamic measurements were made during left and right heart catheterizations in anaesthelized dogs at each specified study time point. Aortic and LV pressures were measured using cathetenip micromanometers (Millar Instruments, Houston, Tex.), and LV end-diastolic pressure (LVEDP) was measured from the LV pressure waveform. […] Ventriculography were recorded on digital media at 30 frames per second during a power injection of 15 mL of contrast material (Conray; Mallinckrodt Inc., St. Louis, Mo.). […] The end-systolic and end-diastolic pressure-volume points were determined for beats at end-expiration in the usual fashion. […]

male dogs = experiment: GLP cardiovascular safety study in male dogs; assay type: in vivo, dog
Procedure: The NOAEL of 33.3 ng/kg/min was determined in a GLP cardiovascular safety study in male dogs, which is considered to be the most relevant and sensitive species for cardiovascular drugs.
A NOAEL of 33.3 ng/kg/min was determined in a GLP cardiovascular safety study in male dogs, which is considered to be the most relevant and sensitive species for cardiovascular drugs. […] Based on these values a starting dose of 0.1 ng/kg/min was selected.

[3] = Human pharmacokinetics, healthy subjects, 7.5-hour continuous ascending dose IV infusion; assay type: in vivo; conditions: for half-life / clearance / Cmax / Tmax / AUC(0-inf): human, in vivo
Procedure: In healthy subjects following a 7.5-hour continuous ascending dose IV infusion of h-SCP (SEQ ID NO:1) noncompartmental pharmacokinetic analyses were performed to determine plasma concentrations of h-SCP (SEQ ID NO:1). Plasma h-SCP (SEQ ID NO:1) reached the steady state shortly after initiating the IV infusion (FIG. 16A). […] Within 30 minutes, plasma h-SCP (SEQ ID NO:1) was reduced to ≦20% of the h-SCP (SEQ ID NO:1) level at the end of infusion. […] However, the additional compartment's contribution to the overall exposure and accumulation of h-SCP (SEQ ID NO:1) is likely marginal as indicated by the effective half-lives.

healthy subjects = experiment: Human hemodynamics, healthy subjects, 24- and 72-hour continuous IV infusion, 54 ng/kg/min; assay type: in vivo
Procedure: Efficacy was based on the pharmacodynamic evaluation of hemodynamics, which was monitored using the noninvasive technique of impedance cardiography. Heart rate values were collected by impedance cardiography measurements. It was noted that the heart rate of subjects receiving placebo were elevated on the day of their infusions, at baseline before the infusion, and for the first 3 to 4 hours after the infusions were started (FIG. 17). Based on this observation, it appeared that there was a potential effect of period on the observed heart rate.
Healthy subjects who received placebo had heart rates that decreased compared with baseline during the infusion.

[4] = healthy subjects, infusion rate 9/18/36 ng/kg/min, mean, N = 5
[5] = healthy subjects, infusion rate 18/54/72 ng/kg/min, mean, N = 3
[6] = healthy subjects, infusion rate 36/72/144 ng/kg/min, N = 1
[7] = healthy subjects, infusion rate 54/72/108 ng/kg/min, mean, N = 2

## H-TKFTLSLDVPTNIMNLLFNIAKAKNLRAQAAANAHLMAQI-NH2 [SEQ ID NO: 1, TKFTLSLDVPTNIMNLLFNIAKAKNLRAQAAANAHLMAQI-NH2]
[1]; read-out: concentration for 50% response, decrease in coronary perfusion pressure (CPP)
  EC50: 46 nM
[1]; read-out: concentration for 50% response, increase in heart rate
  EC50: 52 nM
[1]; read-out: concentration for 50% response, increase in left ventricular developed pressure (dP/dtmax)
  EC50: 9.9 nM
[2]; 4.3 ng/kg/min infusion for 120 min (untreated 0.257)
  absolute value of EDPVR slope: 0.128
[2]; 4.3 ng/kg/min infusion for 120 min (untreated 1.38±0.26)
  slope of the ESPVR: 2.26±0.46
Male dogs; dog, in vivo
  upper limit of plasma concentration: 12.0 ng/mL
Male dogs; expected Cpss at 0.1 ng/kg/min versus upper limit in dogs
  safety margin: 1,390 fold
Male dogs; male dogs
  NOAEL: 33.3 ng/kg/min
[3]; dose = CL × Cpss / weight, 70 kg
  human equivalent dose to achieve Cpss of 620 pg/mL: 4.4 ng/kg/min
[3]; human starting dose of 0.1 ng/kg/min, pharmacokinetic-based approach
  expected steady-state plasma concentration (Cpss): 8.6 pg/mL
[3]; healthy subjects, across dose groups, read-out: Mean effective half-life
  half-life: 1.54 to 14.2 h
[3]; healthy subjects, across dose groups, read-out: Mean systemic clearance
  clearance: 4.5 to 7 mL/min/kg
[3]; healthy subjects, across dose groups, read-out: Mean terminal half-life
  half-life: 2.13 to 28.5 h
[3]; healthy subjects, infusion rate 0.1/0.3/1 ng/kg/min, mean, N = 5
  Cmax: 0.248 ng/mL
[3]; healthy subjects, infusion rate 0.1/0.3/1 ng/kg/min, median, N = 5
  Tmax: 7.47 h
[3]; healthy subjects, infusion rate 1/3/9 ng/kg/min, mean, N = 4
  AUC(0-inf): 7.41 ng·h/mL
[3]; healthy subjects, infusion rate 1/3/9 ng/kg/min, mean, N = 4, read-out: CL (converted)
  clearance: 4.67 mL/min/kg
[3]; healthy subjects, infusion rate 1/3/9 ng/kg/min, median, N = 5
  Tmax: 7 h
[3]; [4]
  AUC(0-inf): 28.9 ng·h/mL
  Cmax: 7.26 ng/mL
[3]; healthy subjects, infusion rate 9/18/36 ng/kg/min, mean, N = 5, read-out: CL (converted)
  clearance: 5.5 mL/min/kg
[3]; healthy subjects, infusion rate 9/18/36 ng/kg/min, median, N = 5
  Tmax: 7 h
[3]; healthy subjects, infusion rate 18/36/72 ng/kg/min, N = 1
  AUC(0-inf): 68.7 ng·h/mL
[3]; healthy subjects, infusion rate 18/36/72 ng/kg/min, N = 1, read-out: CL (converted)
  clearance: 4.67 mL/min/kg
[3]; healthy subjects, infusion rate 18/36/72 ng/kg/min, mean, N = 2
  Cmax: 14.1 ng/mL
[3]; healthy subjects, infusion rate 18/36/72 ng/kg/min, median, N = 2
  Tmax: 6.46 h
[3]; [5]
  AUC(0-inf): 55.9 ng·h/mL
  Cmax: 9.01 ng/mL
[3]; healthy subjects, infusion rate 18/54/72 ng/kg/min, mean, N = 3, read-out: CL (converted)
  clearance: 6.83 mL/min/kg
[3]; healthy subjects, infusion rate 18/54/72 ng/kg/min, median, N = 3
  Tmax: 5.5 h
[3]; [6]
  AUC(0-inf): 138 ng·h/mL
  Cmax: 29.1 ng/mL
  Tmax: 7.42 h
[3]; healthy subjects, infusion rate 36/72/144 ng/kg/min, N = 1, read-out: CL (converted)
  clearance: 4.5 mL/min/kg
[3]; [7]
  AUC(0-inf): 95.5 ng·h/mL
  Cmax: 14.6 ng/mL
[3]; healthy subjects, infusion rate 54/72/108 ng/kg/min, mean, N = 2, read-out: CL (converted)
  clearance: 7 mL/min/kg
[3]; healthy subjects, infusion rate 54/72/108 ng/kg/min, median, N = 2
  Tmax: 6.99 h
[3]; iv, healthy humans, intravenous infusion, for a 70-kg person, read-out: clearance (CL) (converted)
  clearance: ~500 mL/min
Healthy subjects
  time in which the increase in heart rate occurred: ≤ 15 min
